Experiments:
[1] = system: HEK293(β1) cells (αVβ3-negative); assay: In vitro binding of Cy5-labeled peptides, confocal laser scanning microscopy; format: cell-based, human; details: 0.1 μM Cy5-labeled peptide, 30 min, 37°C, result in words
Protocol: (§1) Cells were seeded on sterilized 18-mm-diameter glass coverslips in 12-well plates (3 × 10^5 cells per well), and incubated overnight at 37°C. […] They were then washed with PBS, fixed with 2% paraformaldehyde at room temperature for 10 min. The nuclei were stained with 5 μM Hoechst 33342, and the coverslips were inverted onto glass slides using Mowiol (Calbiochem, San Diego, CA) mounting medium.

[2] = system: HEK293(β3) cells (high levels of αVβ3); assay: as above; format: cell-based, human; details: 0.1 μM Cy5-labeled peptide, 30 min, 37°C, result in words
Protocol: as §1

HEK293(β3) s.c. tumors [3] = assay: Whole body in vivo optical imaging (fluorescence reflectance) of tumor-bearing mice; design: species or system Swiss nude mice
HEK293(β3) s.c. tumors [4] = assay: Histological distribution of RGD-peptides in excised tumors (CLSM); format: in vivo, Swiss nude mice; details: HEK293(β3) s.c. tumor excised 3 hr after 10 nmol i.v., cryosections
Protocol: Sections of 20–30 μm thickness were fixed with 2% paraformaldehyde at room temperature for 10 min. The nuclei were stained with 5 μM Hoechst 33342, and the coverslips were mounted using Mowiol and kept at 4°C in the dark until observation using CLSM.

Cy5-RAFT-c(-RGDfK-)4 (bicyclic or more) [Cy5-labeled tetramer: four c[-RGDfK-] grafted via oxime bond on RAFT cyclic decapeptide, Cy5 on the opposite side lysine]
binding to HEK293(β1) cells (CLSM) [1]: none of these peptides bound
binding to HEK293(β3) cells (CLSM) [2]: very strongly
tumor contrast (T/S ratio, tumor vs. skin) (HEK293(β3) s.c. tumors [3]; HEK293(β3) s.c. tumor, 10 nmol i.v., 4 hr p.i., mean ± SD, n = 3–4): 15.9 ± 3.6
renal uptake (HEK293(β3) s.c. tumors [3]; i.v. injection, tumor-bearing or normal mice, not modified by excess of unlabeled tetramer or monomer): higher renal uptake than Cy5-cRGD
tumor/skin ratio (HEK293(β3) s.c. tumors [3]; intravenous injection, HEK293(β3) tumors, time not stated (abstract)): above 15
distribution / internalization in tumor cells of excised tumors (CLSM, words) (HEK293(β3) s.c. tumors [4]): massively internalized by tumor cells

Source: article PMC1906830, “In vivo optical imaging of integrin αV-β3 in mice using multivalent or monovalent cRGD targeting vectors” (Molecular Cancer, 2007)
